The values that follow are results of earlier work, collected in US10500196B2 (Aequus Pharmaceuticals Inc., priority 2015, dated 2019).

The conditions of the series: oral DICLEGIS tablet.

As for `Cc1ncc(CO)c(CO)c1O.Cl` [Pyridoxine Hydrochloride, 3,4-pyridinedimethanol,5-hydroxy-6-methyl-,hydrochloride], the “absorption when administered with food” value is given as “delayed” and the bioavailability with food entry is “reduces”.
